In patent US6787522B2, “Antibacterial agents” (British Biotech Pharmaceuticals, priority 1998, dated 2004) one finds MIC data, which are given here for twelve compounds.

Converted amounts (≈) assume the structure as drawn. Read-outs that look alike come from different tables or passages of the source.

What all share (type): cell-based
The test system of assay [1] is E. coli strain DH5α. As to the kind of experiment: MIC, two fold serial dilution in 2xYT broth. Particulars: Escherichia coli, 37° C., 18 hours.
Assay [2] has as its system Enterobacter cloacae (American Type Culture Collection number 13047). As to the kind of experiment: MIC, two fold serial dilution in 2xYT broth. Particulars: 37° C., 18 hours.
For assay [3], the system named is Klebsiella pneumoniae (American Type Culture Collection number 13883). Briefly: MIC, two fold serial dilution in 2xYT broth. Particulars: 37° C., 18 hours.
In assay [4] the test system is Staphylococcus capitis (American Type Culture Collection number 35661). Briefly: MIC, two fold serial dilution in 2xYT broth. The settings on record: 37° C., 18 hours.
The test system of assay [5] is Enterococcus faecalis ATCC 29212. Briefly: MIC, Microdilution Broth Method (NCCLS). For orientation: In broth dilution the organism is exposed to a series of concentrations in liquid medium.
Assay [6] concerns Enterococcus faecalis (Vancomycin resistant strain). Briefly: MIC, Microdilution Broth Method (NCCLS).
For assay [7], the system named is clinical isolates of aminoglycoside and erythromycin resistant Streptococcus pneumoniae. As to the kind of experiment: MIC, tryptic soy broth with 7% calf serum.
For assay [8], the system named is Helicobacter pylori (American Type Culture Collection number 43504). Briefly: MIC, Columbia agar base with 7% sheep blood. Particulars: H. pylori, 35° C., 72 hours.
The test system of assay [9] is Pseudomonas aeruginosa (American Type Culture Collection number 9027). Briefly: MIC, Nutrient Broth. The settings on record: P. aeruginosa, 37° C., 20 hours.
In assay [10] the test system is Mycobacterium ranae (American Type Culture Collection number 110). Briefly: MIC, Brain Heart Infusion broth. The settings on record: M. ranae, 37° C., 48 hours.
The subject of assay [11] is Escherichia coli ATCC 25922. Briefly: MIC, Microdilution Broth Method (NCCLS). Particulars: ATCC25922.
The test system of assay [12] is Klebsiella pneumoniae (American Type Culture Collection number 10031). As to the kind of experiment: MIC, Nutrient Broth. The settings on record: K. pneumoniae, 37° C., 20 hours.
In assay [13] the test system is Pseudomonas aeruginosa ATCC 27853. As to the kind of experiment: MIC, Microdilution Broth Method (NCCLS). Particulars: ATCC27853.
In assay [14] the test system is Klebsiella pneumoniae ATCC 13883. Briefly: MIC, Microdilution Broth Method (NCCLS). The settings on record: ATCC13883.
The test system of assay [15] is Escherichia coli ATCC 12014. As to the kind of experiment: MIC, Microdilution Broth Method (NCCLS). Particulars: ATCC12014.
Assay [16] relates to Morganella morganii ATCC 36030. Briefly: MIC, Microdilution Broth Method (NCCLS). The settings on record: ATCC36030.
The subject of assay [17] is Staphylococcus aureus ATCC 25923 MSSA. As to the kind of experiment: MIC, Microdilution Broth Method (NCCLS).
Assay [18] deals with Staphylococcus epidermidis ATCC 1228. Briefly: MIC, Microdilution Broth Method (NCCLS). Particulars: ATCC1228.
Assay [19] deals with Enterobacter cloacae ATCC 13047. As to the kind of experiment: MIC, Microdilution Broth Method (NCCLS). Particulars: ATCC13047.
The test system of assay [20] is Staphylococcus epidermidis ATCC 27626. As to the kind of experiment: MIC, Microdilution Broth Method (NCCLS). Particulars: ATCC27626.
Assay [21] concerns Micrococcus luteus ATCC 9341. As to the kind of experiment: MIC, Microdilution Broth Method (NCCLS). Particulars: ATCC9341.
The test system of assay [22] is Staphylococcus aureus ATCC 29213 MSSA. Briefly: MIC, Microdilution Broth Method (NCCLS).
The test system of assay [23] is Staphylococcus aureus ATCC 6538 MSSA. As to the kind of experiment: MIC, Microdilution Broth Method (NCCLS).
In assay [24] the test system is methicillin-resistant (MR) Staphylococcus aureus (American Type Culture Collection number 33591). Briefly: MIC, Nutrient Broth. Particulars: S. aureus (MR), 37° C., 20 hours.
Where [25] appears, read: Enterococcus faecalis, ATCC29212.
Where [26] appears, read: Helicobacter pylori, read-out: MIC.
The mark [27] stands for this setting: ATCC29212, Enterococcus faecalis ATCC 29212, table of multi-resistant clinical isolate, read-out: MIC.
[28] abbreviates: Pseudomonas aeruginosa, read-out: MIC.
Setting [29] is: Enterococcus faecalis Vancomycin resistant strain (multi-resistant clinical isolate), read-out: MIC.
Where [30] appears, read: Streptococcus pneumoniae, S. pneumoniae, tryptic soy broth, 7% calf serum, 37° C., 48 hours, read-out: MIC.
Where [31] appears, read: ATCC29212, Enterococcus faecalis ATCC 29212, Gram-positive table, read-out: MIC.
[32] abbreviates: Enterococcus faecalis (Vancomycin resistant strain), Gram-positive table, read-out: MIC.
The mark [33] stands for this setting: Staphylococcus aureus ATCC 25923 MSSA, read-out: MIC.
[34] abbreviates: Staphylococcus epidermidis ATCC 1228, read-out: MIC.
[35] abbreviates: Staphylococcus epidermidis ATCC 27626, read-out: MIC.
Where [36] appears, read: Micrococcus luteus ATCC 9341, read-out: MIC.
The mark [37] stands for this setting: Staphylococcus aureus ATCC 29213 MSSA, read-out: MIC.
The mark [38] stands for this setting: Staphylococcus aureus ATCC 6538 MSSA, read-out: MIC.
[39] abbreviates: Enterococcus faecalis ATCC 29212, table of multi-resistant clinical isolate.
The mark [40] stands for this setting: Enterococcus faecalis Vancomycin resistant strain (multi-resistant clinical isolate).

As usually defined, the MIC is the smallest concentration in the dilution series that meets the test's criterion for growth inhibition. `O=C(N[C@H](CO)[C@H](O)c1ccc([N+](=O)[O-])cc1)C(Cl)Cl` [chloramphenicol]: the MIC in assay [1] was 3.12 µM (≈ 1.01 µg/mL); in assay [2], 25 µM (≈ 8.08 µg/mL); in [3], 12.5 µM (≈ 4.04 µg/mL); in [4] it was 6.25 µM (≈ 2.02 µg/mL).
On the same counts, the results for `CC1(C)S[C@@H]2[C@H](NC(=O)C(C(=O)O)c3ccccc3)C(=O)N2[C@H]1C(=O)O` (stereo partly drawn) [carbenicillin] are 25 µM (≈ 9.46 µg/mL), more than 200 µM, 200 µM (≈ 75.7 µg/mL) and less than 1.56 µM.
Regarding `CC(C)(O/N=C(\C(=O)N[C@@H]1C(=O)N2C(C(=O)[O-])=C(C[n+]3ccccc3)CS[C@H]12)c1csc(N)n1)C(=O)O` [Ceftazidime], the values for the MIC in assay [5] (setting [25]) and in [6] (Enterococcus faecalis) were 128 µg/mL (≈ 234 µM) and more than 128 µg/mL, respectively.
Turning to `CC1(C)S[C@@H]2[C@H](NC(=O)[C@H](N)c3ccccc3)C(=O)N2[C@H]1C(=O)O` [Ampicillin, ampicillin], the minimum inhibitory concentration (MIC) in [7] (Streptococcus pneumoniae, 48 h) was 3.13 µg/mL (≈ 8.96 µM); in assay [8] (setting [26]), 0.1 µg/mL (≈ 0.286 µM); in assay [5] (setting [27]) it was 0.5 µg/mL (≈ 1.43 µM); in assay [9] (setting [28]), 100 µg/mL (≈ 286 µM); in [6] (setting [29]), more than 128 µg/mL.
Turning to `CN(C)C(=O)[C@@H](NC(=O)C(CC1CCCC1)CN(O)C=O)C(C)(C)C` (stereo partly drawn) [Cpd 4, 2R (or S)-[(Formyl-hydroxy-amino)-methyl]-3-cyclopentyl-propionic acid (1S-dimethyl-carbamoyl-2,2-dimethyl-propyl)-amide], the MIC was 8 µg/mL (≈ 22.5 µM) in assay [5] (setting [27]) and 4 µg/mL (≈ 11.3 µM) in [6] (setting [29]).
As for `CCCCC(CN(O)C=O)C(=O)N[C@H](C(=O)NC)C(C)(C)C` (single isomer, unassigned) [Compound 1, 2R (or S)-[(Formyl-hydroxy-amino)-methyl]-hexanoic acid-(2,2-dimethyl-1S-methyl-carbamoyl-propyl)-amide], the MIC is 0.78 µg/mL (≈ 2.47 µM) in [10]; 4 µg/mL (≈ 12.7 µM) in assay [11]; 50 µg/mL (≈ 159 µM) in assay [7] (setting [30]); 0.2 µg/mL (≈ 0.634 µM) in [12] (Klebsiella pneumoniae, read-out: MIC); 0.1 µg/mL (≈ 0.317 µM) in [8] (setting [26]); 12.5 µM (≈ 3.94 µg/mL) in assay [1]. For the same compound, the MIC was 50 µM (≈ 15.8 µg/mL) in assay [2]; 25 µM (≈ 7.89 µg/mL) in assay [3]; 100 µM (≈ 31.5 µg/mL) in assay [4]; 32 µg/mL (≈ 101 µM) in assay [5] (setting [31]); more than 128 µg/mL in [13]; 16 µg/mL (≈ 50.7 µM) in assay [14]. In addition, the MIC in assay [15] worked out at 4 µg/mL (≈ 12.7 µM); in [9] (setting [28]), 12.5 µg/mL (≈ 39.6 µM); in [6] (setting [32]) it was 128 µg/mL (≈ 406 µM); in assay [16] it was 128 µg/mL (≈ 406 µM); in assay [17] (setting [33]) it was 16 µg/mL (≈ 50.7 µM); in assay [18] (setting [34]), 8 µg/mL (≈ 25.4 µM). The MIC in assay [19] was 32 µg/mL (≈ 101 µM); in assay [20] (setting [35]) it was 8 µg/mL (≈ 25.4 µM); in [21] (setting [36]), 0.5 µg/mL (≈ 1.59 µM); in [22] (setting [37]), 32 µg/mL (≈ 101 µM); in [23] (setting [38]) it was 8 µg/mL (≈ 25.4 µM); in assay [24] (Staphylococcus aureus, read-out: MIC) it was 3.13 µg/mL (≈ 9.92 µM).
On to `C[C@@H](O)[C@H]1C(=O)N2C(C(=O)O)=C(SCCN=CN)C[C@H]12` [Imipenem], for which the values for the MIC in assay [5] (setting [27]) and in assay [6] (setting [29]) were 1 µg/mL (≈ 3.34 µM) and more than 128 µg/mL, respectively.
For `CC[C@H]1OC(=O)[C@H](C)[C@@H](O[C@H]2C[C@@](C)(OC)[C@@H](O)[C@H](C)O2)[C@H](C)[C@@H](O[C@@H]2O[C@H](C)C[C@H](N(C)C)[C@H]2O)[C@](C)(O)C[C@@H](C)C(=O)[C@H](C)[C@@H](O)[C@]1(C)O` [Erythromycin, erythromycin], the MIC in assay [7] (setting [30]) is 100 µg/mL (≈ 136 µM); in [5] (setting [27]) it was 2 µg/mL (≈ 2.73 µM); in assay [6] (setting [29]) it was more than 128 µg/mL.
For the compound `NC[C@H]1O[C@H](O[C@H]2[C@H](O)[C@@H](O[C@H]3O[C@H](CO)[C@@H](O)[C@H](N)[C@H]3O)[C@H](N)C[C@@H]2N)[C@H](O)[C@@H](O)[C@@H]1O` [kanamycin], the MIC is 12.5 µM (≈ 6.06 µg/mL) in [1], 50 µM (≈ 24.2 µg/mL) in [2], 25 µM (≈ 12.1 µg/mL) in [3] and less than 1.56 µM in assay [4].
For the compound `CN[C@H](CC(C)C)C(=O)N[C@H]1C(=O)N[C@@H](CC(N)=O)C(=O)N[C@H]2C(=O)N[C@H]3C(=O)N[C@H](C(=O)N[C@H](C(=O)O)c4cc(O)cc(O)c4-c4cc3ccc4O)[C@H](O)c3ccc(c(Cl)c3)Oc3cc2cc(c3O[C@@H]2O[C@H](CO)[C@@H](O)[C@H](O)[C@H]2O[C@H]2C[C@](C)(N)[C@H](O)[C@H](C)O2)Oc2ccc(cc2Cl)[C@H]1O` [Vancomycin, reference compound], the MIC is 1 µg/mL (≈ 0.69 µM) in assay [5] (setting [39]); 1 µg/mL (≈ 0.69 µM) in [5] (setting [25]); more than 128 µg/mL in assay [6] (Enterococcus faecalis); more than 128 µg/mL in [6] (setting [40]); 0.5 µg/mL (≈ 0.345 µM) in [17] (Staphylococcus aureus); 0.5 µg/mL (≈ 0.345 µM) in assay [18] (Staphylococcus epidermidis). In addition, the MIC in [20] (Staphylococcus epidermidis) is 0.5 µg/mL (≈ 0.345 µM); in assay [21] (Micrococcus luteus), 0.25 µg/mL (≈ 0.173 µM); in [22] (Staphylococcus aureus), 0.25 µg/mL (≈ 0.173 µM); in [23] (Staphylococcus aureus) it was 0.5 µg/mL (≈ 0.345 µM).
As for `CCCCC(CN(O)C=O)C(=O)N[C@H](C(=O)N(C)C)C(C)(C)C` (stereo partly drawn) [Compound 3, 2R (or S)-[(Formyl-hydroxy-amino)-methyl]-hexanoic acid-(1S-dimethylcarbamoyl-2,2-dimethyl-propyl)-amide], the MIC in assay [11] turned out to be 4 µg/mL (≈ 12.1 µM); in [5] (setting [31]), 32 µg/mL (≈ 97.1 µM); in [5] (setting [39]), 32 µg/mL (≈ 97.1 µM); in assay [13], 128 µg/mL (≈ 389 µM); in assay [14] it was 16 µg/mL (≈ 48.6 µM); in assay [15], 4 µg/mL (≈ 12.1 µM). Further, the MIC in assay [6] (setting [32]) was 8 µg/mL (≈ 24.3 µM); in assay [6] (setting [40]) it was 8 µg/mL (≈ 24.3 µM); in assay [16], more than 128 µg/mL; in [17] (setting [33]), 16 µg/mL (≈ 48.6 µM); in assay [18] (setting [34]), 4 µg/mL (≈ 12.1 µM); in assay [19], 32 µg/mL (≈ 97.1 µM). Moreover, the MIC is 2 µg/mL (≈ 6.07 µM) in assay [20] (setting [35]), 0.5 µg/mL (≈ 1.52 µM) in assay [21] (setting [36]), 8 µg/mL (≈ 24.3 µM) in [22] (setting [37]) and 4 µg/mL (≈ 12.1 µM) in assay [23] (setting [38]).
As to gentamycin [reference compound], the MIC in [7] (S. pneumoniae, tryptic soy broth, 7% calf serum, 37° C., 48 hours) turned out to be 100 µg/mL; in assay [12] it was 0.39 µg/mL; in assay [8], 0.78 µg/mL; in assay [9], 0.78 µg/mL; in assay [24], 0.78 µg/mL.
